Source: PubChem BioAssay (NCI)
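Step 1: Grow cells in 96-well plates. Step 2: Expose to compound for 48 hours at 5 concentrations. Step 3: Interpolate endpoints linearly; if unreached, use highest concentration. At the GI50, growth is halved. The concentration for full growth arrest is given as TGI.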

Legend:
Assay in all cases: growth of human tumour cells (NCI), 48 h
NCI-H460 lung = system: NCI-H460 lung
CCRF-CEM leukemia = system: CCRF-CEM leukemia
EKVX NSCLC = system: EKVX NSCLC
NCI-H522 lung = system: NCI-H522 lung
TK-10 renal = system: TK-10 renal
NCI-H226 lung = system: NCI-H226 lung
SK-MEL-5 melanoma = system: SK-MEL-5 melanoma
K-562 leukemia = system: K-562 leukemia
HCT-15 colon = system: HCT-15 colon
SNB-75 CNS = system: SNB-75 CNS

Structure (SMILES) | TGI (NCI-H460 lung) [µM] | TGI (CCRF-CEM leukemia) [µM] | TGI (EKVX NSCLC) [µM] | TGI (NCI-H522 lung) [µM] | TGI (TK-10 renal) [µM] | TGI (NCI-H226 lung) [µM] | TGI (SK-MEL-5 melanoma) [µM] | TGI (K-562 leukemia) [µM] | TGI (HCT-15 colon) [µM] | TGI (SNB-75 CNS) [µM] | GI50 (NCI-H460 lung) [µM] | GI50 (CCRF-CEM leukemia) [µM] | GI50 (EKVX NSCLC) [µM] | GI50 (NCI-H522 lung) [µM] | GI50 (TK-10 renal) [µM] | GI50 (NCI-H226 lung) [µM] | GI50 (SK-MEL-5 melanoma) [µM] | GI50 (K-562 leukemia) [µM] | GI50 (HCT-15 colon) [µM] | GI50 (SNB-75 CNS) [µM]
CCc1cccc(C)c1NC(=O)CC1Sc2ccccc2NC1=O (stereo not drawn) | > 100 | > 100 | > 100 | 61.5 | > 100 | 64.6 | > 100 | > 100 | > 100 | 75 |  |  |  |  |  |  |  |  |  | 
c1ccc(COc2ccc3[nH]c4c(ncc5[nH]c6ccccc6c54)c3c2)cc1 | 37 | 40.7 | 32.4 | 31.9 | 40.8 | 30.9 | 30 | 6.11 | 14.9 | 25.5 |  |  |  |  |  |  |  |  |  | 
O=S(=O)(O)c1ccc2cc(N=Nc3cc(S(=O)(=O)O)c4cccnc4c3O)ccc2c1 | > 100 | > 100 | > 100 | > 100 | > 100 | > 100 | > 100 | > 100 | > 100 | > 100 |  |  |  |  |  |  |  |  |  | 
CCCN(CCCCC(NC(C)=O)C(=O)NCc1ccccc1)C(=O)NC (stereo not drawn) | > 100 | > 100 | > 100 | > 100 | > 100 | > 100 | > 100 | > 100 | > 100 | > 100 |  |  |  |  |  |  |  |  |  | 
Nc1ncnc2c1ncn2C1OC(C(=O)O)C(O)C1O (stereo not drawn) | > 100 | > 100 | > 100 | > 100 | > 100 | > 100 | > 100 | > 100 | > 100 | > 100 |  |  |  |  |  |  |  |  |  | 
[Cl][Sn]([c]1ccccc1)[c]1ccccc1 | 38.7 | 5.85 | 15.5 | 1.89 | 8.57 | 29.6 | 11.2 | 7.31 | 18 | 19.4 | 18.3 | 1.85 | 6.57 | 0.352 | 3.17 | 15.8 | 3.35 | 2.14 | 4.48 | 6.18
O=C(O)C(Cc1ccc(O)c([N+](=O)[O-])c1)N1C(=O)c2ccccc2C1=O (stereo not drawn) | > 100 | > 100 | > 100 | > 100 | > 100 | > 100 | > 100 | > 100 | > 100 | > 100 |  |  |  |  |  |  |  |  |  | 
Nc1ccc2c(c1)[O][Sn]([c]1ccccc1)([c]1ccccc1)[O]C2=O | 33.6 | 7.76 | 25 | 2.36 | 15.6 | 16.7 | 25 | 15.2 | 17.9 | 18.9 | 16 | 1.92 | 10.6 | 0.592 | 7.34 | 9.13 | 11.6 | 2.56 | 6.8 | 7.64
O=C(N/N=C/c1ccc(F)cc1)c1[nH]c2ccc(I)cc2c1-c1ccccc1 | 5.04 |  | > 26.9 | 1.74 | > 100 | > 66.8 | 2.52 |  | > 58.3 | 39.3 | 0.399 | 0.383 | 0.47 | 0.257 | 19.7 | 2.24 | 0.417 | 0.325 | 0.39 | 0.327
